Source: patent US6358885B1, “Substituted phenylheterocyclic herbicides” (Mississippi State University, priority 1992, dated 2002)

What was measured:
giant foxtail [1] = test: Test C preemergence/postemergence greenhouse plant response rating 0 to 100; assay type: in vivo, Setaria faberii; conditions: for Plant response rating, Giant foxtail: 125 g/ha, 0 to 100 scale
How it was run: (§1)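 Compounds in non-phytotoxic solvent applied preemergence to sandy loam one day after planting, postemergence at the 1–4 leaf stage, or to ~2.5 cm floodwater over silt loam.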

wild buckwheat = test: Test B preemergence/postemergence greenhouse plant response rating 0 to 10; assay type: in vivo, Polygonum convolvulus; conditions: for Plant response rating, Wild buckwheat: 0 to 10 scale
How it was run: (§2)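 Postemergence treatment of plants two to eighteen cm tall ran alongside preemergence treatment of planted seed, each using compound in a non-phytotoxic solvent.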

umbrella sedge = test: Test C flood test plant response rating 0 to 100; assay type: in vivo, Cyperus difformis
Description: The compounds evaluated in this test were formulated in a non-phytoxic solvent and applied to the soil surface before plant seedlings emerged (preemergence application), to water that covered the soil surface (flood application), and to plants that were in the one-to-four leaf stage (postemergence application). A sandy loam soil was used for the preemergence and postemergence tests, while a silt loam soil was used in the flood test. Water depth was approximately 2.5 cm for the flood test and was maintained at this level for the duration of the test. Plant species in the preemergence and postemergence tests consisted of barley (Hordeum vulgare), bedstraw (Galium aparine), blackgrass (Alopecurus myosuroides), chickweed (Stellaria media), corn (Zea mays), cotton (Gossypium hirsutum), crabgrass (Digitaria sanguinalis), downy brome (Bromus tectorum), giant foxtail (Setaria faberii), lambsquarters (Chenopodium album), morningglory (Ipomoea hederacea), pigweed ([…]), rape (Brassica napus), ryegrass (Lolium multiflorum), sorghum (Sorghum bicolor), soybean (Glycine max), speedwell (Veronica persica), sugar beet (Beta vulgaris), velvetleaf (Abutilon theophrasti), wheat (Triticum aestivum), wild buckwheat (Polygonum convolvulus), and wild oat (Avena fatua). All plant species were planted one day before application of the compound for the preemergence portion-of this test. Plantings of these species were adjusted to produce plants of appropriate size for the post-emergence portion of the test. […] All plant species were grown using normal greenhouse practices. Visual evaluations of injury expressed on treated plants, when compared to untreated controls, were recorded approximately fourteen to twenty one days after application of the test compound. […] A dash (-) response means no test result.

barnyardgrass = test: Test B preemergence/postemergence greenhouse plant response rating 0 to 10; assay type: in vivo, Echinochloa crus-galli; conditions: for Plant response rating, Barnyardgrass: 0 to 10 scale
How it was run: as §2

wild oat = test: as above; assay type: in vivo, Avena fatua; conditions: for Plant response rating, Wild oat: 0 to 10 scale
How it was run: as §2

giant foxtail [2] = test: as above; assay type: in vivo, Setaria faberii; conditions: for Plant response rating, Giant foxtail: 0 to 10 scale
How it was run: as §2

chickweed = test: Test C preemergence/postemergence greenhouse plant response rating 0 to 100; assay type: in vivo, Stellaria media; conditions: for Plant response rating, Chickweed: 125 g/ha, 0 to 100 scale
How it was run: as §1

cotton = test: as above; assay type: in vivo, Gossypium hirsutum; conditions: for Plant response rating, Cotton: 125 g/ha, 0 to 100 scale
How it was run: as §1

lambsquarters = test: Test B preemergence/postemergence greenhouse plant response rating 0 to 10; assay type: in vivo, Chenopodium album; conditions: for Plant response rating, Lambsquarter: 0 to 10 scale
How it was run: as §2

soybean = test: Test C preemergence/postemergence greenhouse plant response rating 0 to 100; assay type: in vivo, Glycine max; conditions: POSTEMERGENCE
How it was run: as §1

With CCOCOc1cc(-c2nn3c(c2Cl)CCCC3)c(F)cc1Cl [Compound 59] the “Plant response rating, Giant foxtail” value (giant foxtail [1]; POSTEMERGENCE) was 90, the “Plant response rating (0 to 100), Giant foxtail” value (giant foxtail [1]; POSTEMERGENCE, Rate 2 g/ha) was 20 and the “Plant response rating, Giant foxtail” value (giant foxtail [1]; PREEMERGENCE) was 90. For the same molecule, the “Plant response rating (0 to 100), Giant foxtail” value (giant foxtail [1]; PREEMERGENCE, Rate 2 g/ha) was 0, the “Plant response rating (0 to 100), Giant foxtail” value (giant foxtail [1]; Rate 8 g/ha, POSTEMERGENCE) was 40 and the “Plant response rating (0 to 100), Giant foxtail” value (giant foxtail [1]; Rate 8 g/ha, PREEMERGENCE) was 10. For the same molecule, the “Plant response rating (0 to 100), Giant foxtail” value (giant foxtail [1]; Rate 31 g/ha, POSTEMERGENCE) was 70, the “Plant response rating (0 to 100), Giant foxtail” value (giant foxtail [1]; Rate 31 g/ha, PREEMERGENCE) was 50 and the “Plant response rating, Wild buckwheat” value (wild buckwheat; POSTEMERGENCE, Rate 50 g/ha) was 10. The “Plant response rating, Wild buckwheat” value (wild buckwheat; PREEMERGENCE, Rate 50 g/ha) was 10, the “Plant response rating (0 to 10 scale), Wild buckwheat” value (wild buckwheat; PREEMERGENCE, Rate 200 g/ha) was 10 and the “Plant response rating, Wild buckwheat” value (wild buckwheat; Rate 200 g/ha, POSTEMERGENCE) was 10. The “Plant response rating (0 to 100), Umbrella sedge” value (umbrella sedge; POSTEMERGENCE section, flood test, Rate 2 g/ha) was 90, the “Plant response rating (0 to 100), Umbrella sedge” value (umbrella sedge; Rate 8 g/ha, under POSTEMERGENCE head (flood test species)) was 0 and the “Plant response rating (0 to 100), Umbrella sedge” value (umbrella sedge; Rate 31 g/ha, under POSTEMERGENCE head (flood test species)) was 0. For the same molecule, the “Plant response rating Umbrella sedge” value (umbrella sedge; flood test species listed under POSTEMERGENCE, 125 g/ha, 0 to 100 scale) was 0, the “Plant response rating, Barnyardgrass” value (barnyardgrass; POSTEMERGENCE, Rate 50 g/ha) was 5 and the “Plant response rating, Barnyardgrass” value (barnyardgrass; PREEMERGENCE, Rate 50 g/ha) was 6. For the same molecule, the “Plant response rating (0 to 10 scale), Barnyardgrass” value (barnyardgrass; PREEMERGENCE, Rate 200 g/ha) was 8, the “Plant response rating, Barnyardgrass” value (barnyardgrass; Rate 200 g/ha, POSTEMERGENCE) was 9 and the “Plant response rating, Wild oat” value (wild oat; POSTEMERGENCE, Rate 50 g/ha) was 7. The “Plant response rating, Wild oat” value (wild oat; PREEMERGENCE, Rate 50 g/ha) was 2, the “Plant response rating (0 to 10 scale), Wild oat” value (wild oat; PREEMERGENCE, Rate 200 g/ha) was 7 and the “Plant response rating, Wild oat” value (wild oat; Rate 200 g/ha, POSTEMERGENCE) was 7. The “Plant response rating, Giant foxtail” value (giant foxtail [2]; POSTEMERGENCE, Rate 50 g/ha) was 6, the “Plant response rating, Giant foxtail” value (giant foxtail [2]; PREEMERGENCE, Rate 50 g/ha) was 9 and the “Plant response rating (0 to 10 scale), Giant foxtail” value (giant foxtail [2]; PREEMERGENCE, Rate 200 g/ha) was 10. For the same molecule, the “Plant response rating, Giant foxtail” value (giant foxtail [2]; Rate 200 g/ha, POSTEMERGENCE) was 7, the “Plant response rating, Chickweed” value (chickweed; POSTEMERGENCE) was 90 and the “Plant response rating (0 to 100), Chickweed” value (chickweed; POSTEMERGENCE, Rate 2 g/ha) was 20. The “Plant response rating, Chickweed” value (chickweed; PREEMERGENCE) was 30, the “Plant response rating (0 to 100), Chickweed” value (chickweed; PREEMERGENCE, Rate 2 g/ha) was 0 and the “Plant response rating (0 to 100), Chickweed” value (chickweed; Rate 8 g/ha, POSTEMERGENCE) was 40. The “Plant response rating (0 to 100), Chickweed” value (chickweed; Rate 8 g/ha, PREEMERGENCE) was 0, the “Plant response rating (0 to 100), Chickweed” value (chickweed; Rate 31 g/ha, POSTEMERGENCE) was 70 and the “Plant response rating (0 to 100), Chickweed” value (chickweed; Rate 31 g/ha, PREEMERGENCE) was 10. The “Plant response rating, Cotton” value (cotton; POSTEMERGENCE) was 100, the “Plant response rating (0 to 100), Cotton” value (cotton; POSTEMERGENCE, Rate 2 g/ha) was 95 and the “Plant response rating, Cotton” value (cotton; PREEMERGENCE) was 50. For the same molecule, the “Plant response rating (0 to 100), Cotton” value (cotton; PREEMERGENCE, Rate 2 g/ha) was 0, the “Plant response rating (0 to 100), Cotton” value (cotton; Rate 8 g/ha, POSTEMERGENCE) was 100 and the “Plant response rating (0 to 100), Cotton” value (cotton; Rate 8 g/ha, PREEMERGENCE) was 0. For the same molecule, the “Plant response rating (0 to 100), Cotton” value (cotton; Rate 31 g/ha, POSTEMERGENCE) was 100, the “Plant response rating (0 to 100), Cotton” value (cotton; Rate 31 g/ha, PREEMERGENCE) was 10 and the “Plant response rating, Lambsquarter” value (lambsquarters; POSTEMERGENCE, Rate 50 g/ha) was 10. For the same molecule, the “Plant response rating, Lambsquarter” value (lambsquarters; PREEMERGENCE, Rate 50 g/ha) was 10, the “Plant response rating (0 to 10 scale), Lambsquarter” value (lambsquarters; PREEMERGENCE, Rate 200 g/ha) was 10 and the “Plant response rating, Lambsquarter” value (lambsquarters; Rate 200 g/ha, POSTEMERGENCE) was 10. For the same molecule, the “Plant response rating, Soybean” value (soybean; 125 g/ha, 0 to 100 scale) was 70 and the “Plant response rating (0 to 100), Soybean” value (soybean; Rate 2 g/ha) was 30.
